The values that follow are results of earlier work, collected in US5753436A, “Chemiluminescent energy transfer assays” (Tropix, Inc., priority 1995, dated 1998).

The series concerns alkaline phosphatase.

Take `O=P(O)(O)Oc1ccc2nc(-c3nc4ccccc4s3)sc2c1` [AttoPhos]: the Km (commonly the substrate concentration at which the rate is half of its maximum) is 30 µM. For the setting “2.40M DEA (diethanolamine) pH 9.0, 0.23 mM MgCl2, 0.005% NaN by weight”, the turnover number is 85,400 molecules of AttoPhos per minu.
